Columns and labels:
[1] = target: T1, human GST-HPK1 (1-346) (Homo sapiens, UniProt Q92918); test: HPK1 enzyme inhibitory ability (ADP-Glo kinase assay); type: biochemical; conditions: human GST-HPK1 3 ng, ATP 3 uM, 25° C. 2 hours
T1 construct: purified human GST-HPK1 (1-346, Signalchem) enzyme; purchased Signalchem
T1 sequence (Q92918 1-346): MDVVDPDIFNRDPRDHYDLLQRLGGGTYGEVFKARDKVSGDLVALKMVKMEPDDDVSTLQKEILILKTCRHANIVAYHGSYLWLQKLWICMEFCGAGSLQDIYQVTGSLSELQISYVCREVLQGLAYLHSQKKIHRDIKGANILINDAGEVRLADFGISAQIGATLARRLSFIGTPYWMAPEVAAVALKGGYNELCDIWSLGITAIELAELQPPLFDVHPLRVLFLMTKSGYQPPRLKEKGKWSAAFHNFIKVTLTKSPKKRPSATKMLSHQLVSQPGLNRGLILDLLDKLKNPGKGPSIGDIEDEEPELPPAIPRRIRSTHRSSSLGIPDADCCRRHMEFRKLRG
Summary of the method: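 Human GST-HPK1(1-346), 3 ng, reacted with 3 uM ATP and specific substrate in 40 mM Tris-HCl pH 7.4, 20 mM MgCl2, 0.5 mg/mL BSA, 50 uM DTT for 2 h at 25° C. ADP-Glo luminescence read; IC50 (nM) relative to untreated solvent control.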

[2] = target: T2, CDK6 cyclin D1 (Homo sapiens, UniProt Q00534); test: CDK6 enzyme inhibitory ability (Reaction Biology); type: biochemical; conditions: measured in Reaction Biology (USA)
T2 construct: purchased Reaction Biology (USA), contract assay
Method: (§1) In order to evaluate the CDK4 and CDK6 enzyme inhibitory activities of the example compounds according to the present invention, IC5O (nM) was measured for the CDK4 cyclin D1 and CDK6 cyclin D1 enzymes in Reaction Biology (USA), and the results were shown in Table 3 below.

[3] = tested on: MCF-7 cells; test: Breast cancer cell line proliferation inhibitory activity (CellTiter-Glo 2.0); type: cell-based; conditions: Homo sapiens, MCF7, 120 hours
Summary of the method: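 MCF-7 cells exposed to a 12-point, 3-fold dilution series (final 0.00005–10 μM) for 120 h at 37 °C. Viability read by CellTiter-Glo 2.0 luminescence, expressed as percent of vehicle-treated cells. GI50 (nM) derived from the curves.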

[4] = target: T3, ARK5 (Homo sapiens, UniProt O60285); test: scanMAX kinase assay panel; type: binding; conditions: read-out: control percentage (% control)
T3 construct: purchased DiscoverX (scanMAX panel, contract assay)
Method: (§2) The activities of the compounds according to the present invention to more diverse enzymes were evaluated. Specifically, it was decided that the enzyme selectivity of Example 74 selected from the compounds of Examples 1 to 129 was measured at the request of DiscoverX, and the experiment was conducted using a scanMAX™ kinase assay panel. At this time, as a drug to treat the enzyme, a solution prepared by dissolving in DMSO at a concentration of 1 μM was used, and the control percentage (% control) was determined by the method of Equation 1 below, and the results were shown in Table 2 below.
(§3) In Equation above, the positive control and negative control mean compounds showing control percentages of 0% and 100% as DMSO, respectively.

[5] = target: T4, AXL (Homo sapiens, UniProt P30530); test: scanMAX kinase assay panel; type: binding; conditions: read-out: control percentage (% control)
T4 construct: purchased DiscoverX (scanMAX panel, contract assay)
Method: as §2, §3

[6] = target: T5, JAK1(JH2domain-pseudokinase) (Homo sapiens, UniProt P23458); test: scanMAX kinase assay panel; type: binding; conditions: read-out: control percentage (% control)
T5 construct: JAK1(JH2domain-pseudokinase); purchased DiscoverX scanMAX kinase assay panel
Method: as §2, §3

[7] = target: T6, MAP4K5 (Homo sapiens, UniProt Q9Y4K4); test: scanMAX kinase assay panel; type: binding; conditions: read-out: control percentage (% control)
T6 construct: purchased DiscoverX scanMAX kinase assay panel
Method: as §2, §3

[8] = target: T7, MEK1 (Homo sapiens, UniProt Q02750); test: scanMAX kinase assay panel; type: binding; conditions: read-out: control percentage (% control)
T7 construct: purchased DiscoverX scanMAX kinase assay panel
Method: as §2, §3

[9] = target: T8, MELK (Homo sapiens, UniProt Q14680); test: scanMAX kinase assay panel; type: binding; conditions: read-out: control percentage (% control)
T8 construct: purchased DiscoverX scanMAX kinase assay panel
Method: as §2, §3

[10] = target: T9, MET (Homo sapiens, UniProt P08581); test: scanMAX kinase assay panel; type: binding; conditions: read-out: control percentage (% control)
T9 construct: purchased DiscoverX scanMAX kinase assay panel
Method: as §2, §3

[11] = target: T10, PYK2 (Homo sapiens, UniProt Q14289); test: scanMAX kinase assay panel; type: binding; conditions: read-out: control percentage (% control)
T10 construct: purchased DiscoverX scanMAX kinase assay panel
Method: as §2, §3

[12] = target: T11, SRPK1 (Homo sapiens, UniProt Q96SB4); test: scanMAX kinase assay panel; type: binding; conditions: read-out: control percentage (% control)
T11 construct: purchased DiscoverX
Method: as §2, §3

[13] = target: T12, ULK1 (Homo sapiens, UniProt O75385); test: scanMAX kinase assay panel; type: binding; conditions: read-out: control percentage (% control)
T12 construct: purchased DiscoverX
Method: as §2, §3

[14] = target: T13, ULK2 (Homo sapiens, UniProt Q8IYT8); test: scanMAX kinase assay panel; type: binding; conditions: read-out: control percentage (% control)
T13 construct: purchased DiscoverX
Method: as §2, §3

[15] = target: T14, ULK3 (Homo sapiens, UniProt Q6PHR2); test: scanMAX kinase assay panel; type: binding; conditions: read-out: control percentage (% control)
T14 construct: purchased DiscoverX
Method: as §2, §3

[16] = target: CDK4-cyclinD1 (Homo sapiens, UniProt P11802); test: CDK4 enzyme inhibitory ability (Reaction Biology); type: biochemical; set-up: purchased Reaction Biology (USA), contract assay; conditions: measured in Reaction Biology (USA)
Method: as §1

T10 sequence (Q14289 whole entry): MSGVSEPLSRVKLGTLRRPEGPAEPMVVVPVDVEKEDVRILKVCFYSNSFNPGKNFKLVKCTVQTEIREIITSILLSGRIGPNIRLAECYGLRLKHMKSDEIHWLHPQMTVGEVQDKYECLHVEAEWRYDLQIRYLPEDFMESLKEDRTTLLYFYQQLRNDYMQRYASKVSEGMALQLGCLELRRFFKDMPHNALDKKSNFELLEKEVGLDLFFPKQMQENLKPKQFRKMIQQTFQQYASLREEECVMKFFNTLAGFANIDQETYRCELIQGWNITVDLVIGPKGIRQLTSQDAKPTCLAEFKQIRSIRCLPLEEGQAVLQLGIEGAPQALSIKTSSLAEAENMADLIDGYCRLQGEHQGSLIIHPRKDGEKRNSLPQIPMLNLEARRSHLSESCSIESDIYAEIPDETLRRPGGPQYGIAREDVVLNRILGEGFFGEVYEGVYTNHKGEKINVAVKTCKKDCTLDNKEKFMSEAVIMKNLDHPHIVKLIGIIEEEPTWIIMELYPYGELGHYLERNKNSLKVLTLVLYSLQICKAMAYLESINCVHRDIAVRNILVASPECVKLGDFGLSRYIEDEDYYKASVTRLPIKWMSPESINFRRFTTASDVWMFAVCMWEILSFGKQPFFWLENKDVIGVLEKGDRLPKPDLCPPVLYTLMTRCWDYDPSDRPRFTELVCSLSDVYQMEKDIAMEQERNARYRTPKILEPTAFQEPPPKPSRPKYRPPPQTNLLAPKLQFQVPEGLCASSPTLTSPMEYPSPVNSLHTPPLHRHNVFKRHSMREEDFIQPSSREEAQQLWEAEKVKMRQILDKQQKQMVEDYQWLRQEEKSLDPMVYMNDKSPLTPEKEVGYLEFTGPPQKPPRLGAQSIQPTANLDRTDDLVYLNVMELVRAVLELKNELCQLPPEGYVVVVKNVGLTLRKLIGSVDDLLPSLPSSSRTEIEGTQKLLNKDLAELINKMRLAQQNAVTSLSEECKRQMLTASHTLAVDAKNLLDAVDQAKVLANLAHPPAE
T3 sequence (O60285 whole entry): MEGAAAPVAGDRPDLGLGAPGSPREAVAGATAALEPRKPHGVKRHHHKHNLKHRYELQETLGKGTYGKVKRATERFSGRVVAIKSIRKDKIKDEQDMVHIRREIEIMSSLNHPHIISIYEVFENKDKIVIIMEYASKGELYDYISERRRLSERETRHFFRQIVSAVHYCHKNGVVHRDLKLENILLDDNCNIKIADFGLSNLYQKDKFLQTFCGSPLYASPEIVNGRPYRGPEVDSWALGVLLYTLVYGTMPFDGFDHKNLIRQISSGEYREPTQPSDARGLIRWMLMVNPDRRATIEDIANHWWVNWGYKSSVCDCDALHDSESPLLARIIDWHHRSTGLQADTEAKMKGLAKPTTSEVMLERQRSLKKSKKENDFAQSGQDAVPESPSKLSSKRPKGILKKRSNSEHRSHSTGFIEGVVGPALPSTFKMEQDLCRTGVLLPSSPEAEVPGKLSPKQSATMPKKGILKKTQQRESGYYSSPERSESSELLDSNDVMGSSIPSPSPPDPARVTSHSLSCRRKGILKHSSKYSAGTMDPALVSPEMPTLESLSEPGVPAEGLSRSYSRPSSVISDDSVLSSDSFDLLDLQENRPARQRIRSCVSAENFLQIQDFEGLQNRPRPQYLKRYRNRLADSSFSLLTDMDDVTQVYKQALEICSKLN
T13 sequence (Q8IYT8 whole entry): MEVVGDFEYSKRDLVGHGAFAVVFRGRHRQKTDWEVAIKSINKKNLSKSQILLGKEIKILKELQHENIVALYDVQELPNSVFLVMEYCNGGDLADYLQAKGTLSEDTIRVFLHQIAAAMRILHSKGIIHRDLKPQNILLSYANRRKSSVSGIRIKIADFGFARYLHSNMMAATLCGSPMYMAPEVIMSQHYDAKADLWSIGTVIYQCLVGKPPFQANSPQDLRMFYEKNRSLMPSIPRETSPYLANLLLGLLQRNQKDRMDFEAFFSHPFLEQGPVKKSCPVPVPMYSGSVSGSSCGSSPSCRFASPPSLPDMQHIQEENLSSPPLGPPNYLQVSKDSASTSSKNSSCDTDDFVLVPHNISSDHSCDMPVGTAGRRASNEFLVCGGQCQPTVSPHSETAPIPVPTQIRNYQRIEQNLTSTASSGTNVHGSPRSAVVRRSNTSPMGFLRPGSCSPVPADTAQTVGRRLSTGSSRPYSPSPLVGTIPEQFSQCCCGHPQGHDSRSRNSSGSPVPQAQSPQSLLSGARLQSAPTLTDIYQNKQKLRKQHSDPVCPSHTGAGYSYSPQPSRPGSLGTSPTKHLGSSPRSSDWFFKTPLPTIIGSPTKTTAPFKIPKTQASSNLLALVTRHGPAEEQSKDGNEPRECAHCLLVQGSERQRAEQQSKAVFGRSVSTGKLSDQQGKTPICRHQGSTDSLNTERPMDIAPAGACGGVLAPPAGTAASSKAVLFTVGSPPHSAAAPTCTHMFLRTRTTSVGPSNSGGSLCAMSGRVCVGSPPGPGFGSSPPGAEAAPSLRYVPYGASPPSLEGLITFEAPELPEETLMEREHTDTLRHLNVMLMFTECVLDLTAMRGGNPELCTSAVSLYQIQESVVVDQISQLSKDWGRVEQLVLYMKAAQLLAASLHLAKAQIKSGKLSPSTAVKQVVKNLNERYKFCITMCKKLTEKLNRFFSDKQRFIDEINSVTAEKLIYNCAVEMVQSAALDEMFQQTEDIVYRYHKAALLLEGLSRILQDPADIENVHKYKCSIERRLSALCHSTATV
T2 sequence (Q00534 whole entry): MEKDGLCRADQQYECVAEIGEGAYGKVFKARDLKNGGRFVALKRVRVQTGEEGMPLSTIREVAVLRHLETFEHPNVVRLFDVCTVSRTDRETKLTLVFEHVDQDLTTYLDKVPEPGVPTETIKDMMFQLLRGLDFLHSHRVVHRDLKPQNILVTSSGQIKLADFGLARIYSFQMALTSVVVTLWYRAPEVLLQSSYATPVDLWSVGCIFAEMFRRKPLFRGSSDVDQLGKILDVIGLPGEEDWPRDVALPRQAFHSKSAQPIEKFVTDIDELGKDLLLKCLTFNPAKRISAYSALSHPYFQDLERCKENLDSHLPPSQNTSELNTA
T2 sequence (P24385 whole entry partner): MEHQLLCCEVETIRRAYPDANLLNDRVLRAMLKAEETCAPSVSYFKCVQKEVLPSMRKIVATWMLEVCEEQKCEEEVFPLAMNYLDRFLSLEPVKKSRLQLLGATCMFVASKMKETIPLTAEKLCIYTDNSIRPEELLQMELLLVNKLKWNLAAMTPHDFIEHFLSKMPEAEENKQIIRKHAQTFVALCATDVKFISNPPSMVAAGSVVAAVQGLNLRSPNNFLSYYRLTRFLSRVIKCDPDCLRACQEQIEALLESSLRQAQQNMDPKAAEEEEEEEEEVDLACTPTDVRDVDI
CDK4-cyclinD1, sequence (P11802 whole entry): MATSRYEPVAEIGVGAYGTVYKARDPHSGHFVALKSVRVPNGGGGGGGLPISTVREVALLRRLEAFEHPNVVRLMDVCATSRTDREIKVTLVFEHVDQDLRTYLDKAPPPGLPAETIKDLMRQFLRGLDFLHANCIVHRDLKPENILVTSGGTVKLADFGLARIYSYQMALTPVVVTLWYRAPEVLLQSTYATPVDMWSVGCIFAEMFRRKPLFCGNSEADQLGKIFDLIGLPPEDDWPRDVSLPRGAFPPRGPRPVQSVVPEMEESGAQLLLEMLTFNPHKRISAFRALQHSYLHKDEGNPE
CDK4-cyclinD1, sequence (P24385 whole entry partner): as the sequence (P24385 whole entry partner) above
T12 sequence (O75385 whole entry): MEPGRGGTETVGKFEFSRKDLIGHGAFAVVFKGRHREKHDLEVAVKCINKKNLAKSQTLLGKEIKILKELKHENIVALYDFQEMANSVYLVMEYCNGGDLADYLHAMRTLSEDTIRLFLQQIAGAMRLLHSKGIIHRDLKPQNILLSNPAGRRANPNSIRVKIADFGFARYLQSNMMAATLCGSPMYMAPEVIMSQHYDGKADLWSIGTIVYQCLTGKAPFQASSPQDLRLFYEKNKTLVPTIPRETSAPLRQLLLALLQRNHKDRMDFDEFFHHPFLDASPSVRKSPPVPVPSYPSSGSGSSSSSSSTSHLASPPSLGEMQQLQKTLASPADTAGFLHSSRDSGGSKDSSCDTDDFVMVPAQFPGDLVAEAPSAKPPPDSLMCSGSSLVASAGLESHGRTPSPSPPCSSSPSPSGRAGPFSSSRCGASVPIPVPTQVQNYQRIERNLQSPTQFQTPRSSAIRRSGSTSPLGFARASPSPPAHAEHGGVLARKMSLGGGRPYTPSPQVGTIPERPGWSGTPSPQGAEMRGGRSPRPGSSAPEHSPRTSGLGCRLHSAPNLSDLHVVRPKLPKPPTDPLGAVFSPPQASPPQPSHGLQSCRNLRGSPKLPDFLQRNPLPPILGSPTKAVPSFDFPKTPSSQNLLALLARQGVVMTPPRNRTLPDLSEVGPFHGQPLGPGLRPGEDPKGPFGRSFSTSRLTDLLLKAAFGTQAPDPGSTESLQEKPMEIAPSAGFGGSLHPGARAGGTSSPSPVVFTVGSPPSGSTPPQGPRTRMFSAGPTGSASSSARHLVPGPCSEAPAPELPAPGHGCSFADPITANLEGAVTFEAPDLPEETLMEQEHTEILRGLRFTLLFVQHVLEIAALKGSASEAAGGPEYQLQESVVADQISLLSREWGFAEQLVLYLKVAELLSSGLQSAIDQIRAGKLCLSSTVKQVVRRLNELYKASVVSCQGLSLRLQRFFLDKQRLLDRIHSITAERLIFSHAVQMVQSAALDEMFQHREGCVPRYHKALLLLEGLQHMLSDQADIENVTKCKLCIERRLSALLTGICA
T5 sequence (P23458 583-855 limits assumed): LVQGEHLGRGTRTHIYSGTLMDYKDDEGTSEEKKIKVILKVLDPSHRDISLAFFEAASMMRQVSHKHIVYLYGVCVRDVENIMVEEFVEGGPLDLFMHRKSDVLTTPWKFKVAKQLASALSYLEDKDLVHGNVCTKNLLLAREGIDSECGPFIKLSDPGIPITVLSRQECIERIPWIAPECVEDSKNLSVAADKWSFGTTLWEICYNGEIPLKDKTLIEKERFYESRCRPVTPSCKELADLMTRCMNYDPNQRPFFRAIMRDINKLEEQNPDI

Compound: CN1CCN(c2ccc(Nc3nc(N4OCC[C@H]4c4ccccc4)c4cc[nH]c4n3)cc2)CC1 [Example 74, (S)-N-(4-(4-methylpiperazin-1-yl)phenyl)-4-(3-phenylisoxazolidin-2-yl)-7H-pyrrolo[2,3-d]pyrimidin-2-amine]
- IC50 [1]: ≥ 250 nM
- IC50 [2]: ≥ 250 nM
- GI50 [3]: > 500 nM
- remaining binding at 1 µM [4]: 8.9%
- remaining binding at 1 µM [5]: 3.2%
- remaining binding at 1 µM [6]: 1.2%
- remaining binding at 1 µM [7]: 21%
- remaining binding at 1 µM [8]: 16%
- remaining binding at 1 µM [9]: 2%
- remaining binding at 1 µM [10]: 4.5%
- remaining binding at 1 µM [11]: 27%
- remaining binding at 1 µM [12]: 14%
- remaining binding at 1 µM [13]: 8.1%
- remaining binding at 1 µM [14]: 2.5%
- remaining binding at 1 µM [15]: 13%
- IC50 [16]: ≥ 250 nM
